6 compounds from ChEMBL document CHEMBL5608226, “Innovative Ketamine Formulations: Enhancing Therapeutic Efficacy and Safety” (ACS Med Chem Lett, 2024) can be followed below.

Data set [1] in a line: Ratio of AUC (0 to 4 hr) for test compound to AUC (0 to 4 hr) for Ketamine HCL in Sprague-Dawley rat at 4.64 mg/kg,po administration measured upto 4 hrs. It counts as ADME, organism-based. As to conditions: in vivo.
A short description of data set [2]: Ratio of Cmax for test compound to Cmax for Ketamine HCL in Sprague-Dawley rat at 4.64 mg/kg,po administration measured upto 4 hrs. It counts as ADME, organism-based. As to conditions: in vivo.

As for `CN(C(=O)OC[n+]1cccc(C(=O)N2CCC[C@H]2C(=O)O)c1)C1(c2ccccc2Cl)CCCCC1=O.[Cl-]` (some centres not stated), the figures for the Ratio in data set [1] and in data set [2] were 166% and 178%, respectively.
The corresponding values for `CC[C@H](C)[C@H](NC(=O)c1ccc[n+](COC(=O)N(C)C2(c3ccccc3Cl)CCCCC2=O)c1)C(=O)O.[Cl-]` (some centres not stated) are 223% and 246%.
The corresponding values for `CN(C(=O)OC[n+]1cccc(C(=O)N[C@@H](CCCCN)C(=O)O)c1)C1(c2ccccc2Cl)CCCCC1=O.Cl.[Cl-]` (some centres not stated) are 75.4% and 71.2%.
The corresponding values for `C[C@H](NC(=O)c1ccc[n+](COC(=O)N(C)C2(c3ccccc3Cl)CCCCC2=O)c1)C(=O)O.[Cl-]` (some centres not stated) are 63.2% and 73.7%.
On to `CN(CC(=O)O)C(=O)c1ccc[n+](COC(=O)N(C)C2(c3ccccc3Cl)CCCCC2=O)c1.[Cl-]` (configuration not stated), for which the Ratio in data set [1] worked out at 93.9%; in data set [2], 112%.
For `CC(C)[C@H](NC(=O)c1ccc[n+](COC(=O)N(C)C2(c3ccccc3Cl)CCCCC2=O)c1)C(=O)O.[Cl-]` (some centres not stated), in that order: 160% and 223%.
